Measurements taken from patent US4107308A, “Imidazo[1,5-d]-as-triazines” (American Cyanamid Company, priority 1977, dated 1978).

Legend:
[1] = tested on: spontaneous hypertensive rats; experiment: Anti-hypertensive test in conscious spontaneous hypertensive rats, mean arterial blood pressure by femoral artery puncture; assay type: in vivo, rat; conditions: 100 mg./kg. by gavage in 2% starch, second identical dose at the 24th hour, vehicle controls 166
Procedure: These compounds have been tested pharmacologically and found to have such properties with a desirable wide spread between does producing lowered blood pressure and toxic symptoms. In determining this effect of these compounds on hypertension, adult male, 16-20 weeks old, spontaneous hypertensive rats from Taconic Farms, Germantown, New York, weighing about 300 grams are used. The rats are dosed by gavage with the test compounds at the indicated dose in mg. per kg. of body weight. All doses of drug were suspended in 2% starch (2 ml./kg.). A second identical dose of the test compound is given at the 24th hour. The mean arterial blood pressure (MAP) of the conscious rats is measured directly by femoral artery puncture at the 28th hour.

[2] = tested on: cyclic-AMP phosphodiesterase (mouse skin PDE); experiment: Mouse skin phosphodiesterase (PDE) inhibition test (A); assay type: biochemical; parameters: key: Active: A compound is considered active if it inhibits more than theophylline, that is, to 50% of control of 1 mM concentration of compound, or to 80% of control for 0.05 mM concentration of compound; conditions: final concentration of test compound 10 μg./ml.; epidermal homogenate supernatant of hairless mice

Mouse Skin Phosphodiesterase (A) [2] | SMILES | MAP (mm. Hg) 28th hour [1] | herbicidal activity (Herbicidal activity)
Active | c1cc(Nc2nncc3cncn23)n[nH]1 [4-(3-Pyrazolylamino)-imidazo[1,5-d]-as-triazine] | 134 mm. Hg | 
Active | CN(C)CCNc1nncc2cncn12 [4-[(2-Dimethylaminoethyl)amino]-imidazo[1,5-d]-as-triazine] |  | 
 | CNc1nncc2cncn12 [4-methylamino-imidazo[1,5-d]-as-triazine, 4-Methylamino-imidazo[1,5-d]-as-triazine] | 131 mm. Hg | 
 | CCCc1nc(C)c2cnnc(SC)n12 [Example 61, 8-Methyl-4-(methylthio)-6-propylimidazo[1,5-d]-as-triazine] |  | possesses herbicidal activity
